Experimental data published in patent US20090291153A1, “Health food, Method for producing the same and dried Product and Extract” (priority 2004, published 2009).

Experiments:
[1] = test system: AR42J cells (ATCC CRL 1492); assay: Morphological change of AR42J cells as marker of induced differentiation into insulin-producing cells; format: cell-based; conditions: final concentration 0.1 μg/ml, three days, FIG. 1B
Procedure: Thus, it was examined whether an extract of Ervatamia microphylla can induce AR42J cells to differentiate into insulin-producing cells. It should be noted that, since characteristic morphological changes of cells are observed as differentiation into insulin-producing cells is induced, morphological changes in AR42J cell were examined as a marker of differentiation induction in this Example. AR42J cells were cultured in the media prepared by sterilizing Dulbecco modification Eagle' medium (DMEM; Nissui Pharmaceutical Co., Ltd.) by filtration after its pH was adjusted to 7.4 in the presence of 20 mM HEPES-NaOH and adding 0.6 g/l glutamine (Kanto Chemical Co., Inc: Tokyo, Japan), 0.2 g/l kanamycin (Sigma Chemical Science; Sigma: St.Louis, Mo., USA), 100 unit/ml penicillin G (Sigma), 5 mM NaHCO3, and 10% fetal bovine serum (FBS; Sigma).
500 μl of a suspension of AR42J cells (4.0×10^5 cells/ml per culture medium) was plated into each well of 24-well plastic plates (Corning) at 2×10^5 cells/well and cultured under the conditions of 37° C. and 5% CO2. […]

[2] = test system: streptozotocin-induced diabetic rats; assay: Blood glucose levels of streptozotocin-administered rats; format: in vivo, Wistar rats; conditions: 5 μg/g BW subcutaneously for seven consecutive days from day 1 after streptozotocin 85 μg/g BW i.p.; P<0.05 / P<0.01 vs Control
Procedure: Ten 1-day-old Wistar rats (purchased from Japan SLC, Shizuoka, Japan) were intraperitoneally injected with streptozotocin (purchased from Wako Pure Chemical Industries, Ltd., dissolved in […] citrate buffer (pH 4.5)) at 85 μg/g BW per rat. Streptozotocin decreases insulin production by destroying pancreatic cells, thereby inducing diabetes. The day of streptozotocin injection was defined as day 0. Starting from the next day (day 1), five rats were injected subcutaneously with a solution (ethanol) of conophylline at 5 μg/g BW for seven consecutive days and their blood glucose levels were measured at a predetermined time daily. Five rats in the control group received the same volume of solvent (control).

K-ras-NRK cells = assay: Morphological change of K-ras-NRK cells; format: cell-based; conditions: final concentration 0.1 μg/ml, three days, FIG. 4
From the text: Conophylline is known to induce a morphological change of K-ras-NRK cells. Thus, it was examined whether an extract of Ervatamia microphylla leaves induces morphological changes of K-ras-NRK cells. It is also known that leaves of the Malaysian Tabernaemontana contains conophylline (Org. Biomol. Chem. 1: 1292-1297, 2003). Thus, it was examined that whether an extract of leaves of crape jasmine, the Japanese Tabernaemontana divaricata, also induces morphological changes in K-ras-NRK cells. An extract of each plant was prepared, in the same manner as described in Example 1, by extracting the active ingredient contained in the leaves with methanol, then removing solids by suction filtration, followed by concentring and drying, and dissolving the resulting powder into methanol.
500 μl of a suspension ([…] per culture medium (DMEM containing 5% FBS, 0.6 g/l glutamine, 0.2 g/l kanamycin, 2.25 g/l NaHCO3)) of K-Ras-NRK cells was added to each well of 24-well plastic plates at 2.0×10^4 cells/well, and the plates were incubated at 37° C. under 5% CO2. The next day, conophylline (final concentration: 0.1 μg/ml), an extract of Ervatamia microphylla leaves (final concentration: 10 μg/ml), and an extract of crape jasmine leaves (final concentration: 10 μg/ml) were added to the culture medium, which was incubated at 37° C. under the condition of 5% CO2 for three days. […]

[3] = test system: pancreatic acinar carcinoma AR42J-B13 cells; conditions: cited from earlier work

CC[C@@]12CC(C(=O)OC)=C3Nc4cc5c(cc4[C@@]34CCN(C[C@H]3O[C@H]31)[C@@H]24)[C@@H]1[C@H](O5)[C@@H](O)[C@@]2(CC)CC(C(=O)OC)=C3Nc4c(cc(O)c(OC)c4OC)[C@@]34CCN1[C@@H]24 [conophylline]
morphological change of AR42J cells (induction of differentiation into insulin-producing cells) [1]: undergo a morphological change from small spherical cells to flat cells partly with processes | blood glucose level compared with the control [2]: apparent decrease in blood glucose levels | morphological change of K-ras-NRK cells (K-ras-NRK cells): undergo a morphological change | induction of differentiation into insulin-producing cells ([3]; Abstracts of the 45th Annual Meeting of the Japan Diabetes Society, 2002): induces differentiation of pancreatic acinar carcinoma AR42J-B13 cells into insulin-producing cells | insulin release from the induced insulin-producing cells ([3]; same literature condition): do not release insulin from the cells
